Assay results published in US11046753B2, “Antibody composition and buffer system therefor” (INNOVA BIOSCIENCES LTD, priority 2013, dated 2021).
Entries after “also recorded” stand apart in the source; their conditions may differ.

What was measured:
[1] = Lightning-Link fluorescein conjugation of goat anti-rabbit IgG in presence of additive, fluorescence assay; conditions: 50 mM additive; for % of control: conjugate 1/100 dilution, additive-free control 100%
Protocol: (§1) Black 96-well plates (Greiner Bio-One (code 655077)) were incubated with 50 ul rabbit IgG (1 ug/well) overnight at 4° C. The plates were blocked with TBS/0.1% BSA for 1 hour at room temperature and washed five times with TBS (wash buffer). Fluorescent antibody conjugates were serially diluted in TBS/0.1% BSA and 50 ul aliquots were added to wells in triplicate. After incubation at room temperature for 1 hour, the plate was washed five times and fluorescence emission was read in using a Tecan Infinite M200 plate reader with i-Control 1.4 software with the appropriate excitation/emission settings (fluorescein, 490 nm/535 nm; phycoeythrin, 535 nm/575 nm. Fluorescence data was plotted as a function of conjugate dilution. To compare results for additives tested in different experiments the data were transformed into a percentage of a control value (i.e. the signal for conjugate prepared in the absence of any test additive).
Reactions were carried out according to the manufacturer's standard protocol except that the additives were included at up to 50 mM concentration in conjugation reactions of Goat-anti-rabbit IgG using fluorescein Lightning-Link kit (product code 707-0010, Innova Biosciences, UK). Conjugates were tested according to the protocol described in Example 2.

[2] = 25° C., cited from earlier work; for pKa (COOH): Table 1; for pKa of buffer: neutralisation / catch / wash buffers
[3] = Carbodiimide (EDC)-mediated conjugation of goat anti-rabbit IgG to carboxylated gold nanoparticles in presence of additive, read by lateral flow assay
Protocol: Molecules were tested initially at pH 5 in EDC-mediated reactions with carboxylated gold particles (InnovaCoat GOLD, Innova Biosciences). Potentially interesting molecules from this screening exercise were further evaluated in NHS ester reactions, isothiocyanate reactions and thiolation reactions involving iminothiolane. All of these reactions are widely used in the antibody conjugation field and all would be expected to suffer from interference in the presence of glycine.
Lateral flow test strips (4 mm wide) were prepared from nitrocellulose membrane (Millipore Hi Flow plus 90) striped with goat anti-rabbit IgG (test line) and biotin-BSA (control line). Strips were housed in plastic cartridges and samples of gold conjugate (80 ul) were added to the sample pad. Cartridges were allowed to stand for 30 min and then read using a ESE-Quant GOLD reader—QIAGEN. Each sample was spiked with a fixed amount of streptavidin-gold (Innova biosciences—Product code: 250-0200), which binds to the control line, to check that each test strip had run correctly and that test line data was valid.
10 μg of goat anti-rabbit IgG (GAR) was used per ml of coated 40 nm nanoparticles with carboxyl functionality (InnovaCoat GOLD, Innova Biosciences) at […] in the presence of additives at 50 mM final concentration. Typically reactions were set up with the following additions: 40 μl of 40 nm InnovaCoat (carboxylated) gold nanopartcles, were incubated 5 minutes with 4 μl 0.1 mg/ml GAR, 20 μl water, and 80 μl of 100 mM MES buffer containing 100 mM of additive, pH 5.0. Next, 16 μl of 1 mM EDC was added and after 10 min incubation at 22° C., 20 μl of 10×TBS/1% Tween20 and 20 μl of water was added to give 2 OD conjugate.
Gold conjugates were mixed when required with rabbit IgG ((final concentration 50 ng/ml) at 22° C. Conjugates were 0.2 OD final concentration (i.e. 1/10 dilution from stock conjugates). Samples were run in triplicate on lateral flow test strips as described in Example 1.

[4] = Effect of additives on the thiolation reagent 2-iminothiolane (thiol release, DTNB, A405); conditions: 50 mM additive, pH 8.0, 30 minutes
Protocol: 20 μl of 2 mM 2-iminothiolane was added to each well and mixed quickly and the absorbance values were read at 405 nm every minute for 30 minutes using a Tecan Infinite M200 plate reader with i-Control 1.4 software. […] In control reaction, there is a steady linear increase in absorbance as the reagent is hydrolysed by water. […] The rising baseline can be attributed to the known sensitivity of 2-iminothiolane to hydrolysis at alkaline pH values.

[5] = Lightning-Link phycoerythrin conjugation of goat anti-rabbit IgG in presence of tricine, fluorescence assay
Protocol: as §1
The method was as described in Example 4, except that the Goat anti-rabbit IgG was conjugated to the fluorescent protein phycoerythrin (PE) using a Lightning-Link PE conjugation kit (703-0005). Tricine has little effect on Lightning-Link PE conjugation reactions in the range of concentrations tested. In this case the conjugate prepared at the highest concentration of tricine (50 mM) gave a signal that was 91% of control value in the absence of additive.

[6] = Degree of ionisation of the acid group at pH 5 (Henderson-Hasselbach); type: physicochemical
[7] = additive 50 mM final, MES pH 5.0, EDC, lateral flow test line signal

Row | Molecule | pKa (COOH) [2] | % of Signal [3, 7] [%] | interference in carbodiimide-mediated antibody-gold nanoparticle conjugation reaction ([3]; pH 5, EDC) | other results
1 | CN(C)CC(=O)O [N,N- Dimethylglycine, N,N-dimethylglycine] | pKa1 = 2.06 | 110 | little or no effect | interference in Lightning-Link fluorescein conjugation reaction [1]: little or no effect; % of control [1]: 96%
2 | CNCC(=O)O [N-Methylglycine (Sarcosine), N-methylglycine] | pKa1 = 2.36 | 93 | little or no effect | –
3 | O=C(O)c1ccccn1 [2-Picolinic Acid, 2-pyridinecarboxylic acid] | pKa1 = 5.52 | 100 | – | interference in Lightning-Link fluorescein conjugation reaction [1]: modest interference; % of control [1]: 83%; pKa of the amine group [2]: 5.52; interference in carbodiimide-mediated antibody-gold nanoparticle conjugation reaction ([3]; pH 5, EDC, listed as 2-picolinic acid): little or no effect; interference in carbodiimide-mediated antibody-gold nanoparticle conjugation reaction ([3]; pH 5, EDC, listed as picolinic acid): without effect
4 | NCCC(=O)O [Beta-Alanine] | pKa = 3.6 | 92 | little or no effect | –
5 | O=C(O)c1c(O)cc(O)cc1O [2,4,6-Trihydroxy-benzoic Acid, 2,4,6-trihydroxybenzoic acid] | pKa1 = 1.68 | 0 | severe interference | –
6 | CCC(N)C(=O)O (racemic) [DL-2 Aminobutyric Acid] | pKa = 2.29 | 101 | – | pKa of the carboxyl (acid) group [2]: 2.29; interference in carbodiimide-mediated antibody-gold nanoparticle conjugation reaction ([3]; pH 5, EDC, listed as DL-2-aminobutyric acid): little or no effect; interference in carbodiimide-mediated antibody-gold nanoparticle conjugation reaction ([3]; pH 5, EDC, listed as DL-2 amino butyric acid): no interference
7 | CC(=O)[O-].[Na+] [Na Acetate, sodium acetate] | – | – | – | % of Signal ([3]; pH 5): 37%; interference in carbodiimide-mediated antibody-gold nanoparticle conjugation reaction ([3]; pH 5): significant interference but not totally abolishing the conjugation reaction
8 | C[N+](C)(C)CC(=O)[O-] [Glycine betaine, N,N,N-trimethylglycine] | pKa = 1.83 | 96 | little or no effect | interference in Lightning-Link fluorescein conjugation reaction [1]: little or no effect; % of control [1]: 98%; pKa of the carboxyl (acid) group [2]: 1.8; release of thiols from 2-iminothiolane versus control ([4]; listed as betaine): no increase in this rate; release of thiols from 2-iminothiolane versus control ([4]; listed as glycine betaine): without effect
9 | Phosphate | – | – | caused interference | –
10 | O=C(O)C1CCCCC1 [Cyclohexane-carboxylic acid, cyclohexane carboxylic acid] | – | 71 | significant interference but not totally abolishing the conjugation reaction | –
11 | NC(CO)(CO)CO [Tris] | pKa1 = 8.07 | 19 | severe interference | –
12 | O=C(O)CCC(=O)O [Succinic Acid] | – | 0 | severe interference | –
13 | O=C(O)CNC(CO)(CO)CO [Tricine, N-tris(hydroxymethyl)methylglycine] | pKa1 = 2.3 | 105 | little or no effect | % of control ([5]; 50 mM tricine): 91%; interference in Lightning-Link phycoerythrin conjugation reaction ([5]; up to 50 mM): little effect; also recorded: modest degree of interference; pKa of the carboxyl (acid) group [2]: ~2.3
14 | NCCCC(=O)O [GABA (Υ-Aminobutyric Acid), gamma-amino butyric acid] | pKa1 = 4.23 | 26 | significant interference; also recorded: significantly inhibits | acid groups ionised (COO−) [6]: 85.5%
15 | O=C(O)[C@@H]1CCCN1 [Proline] | – | 94 | little or no effect | interference in Lightning-Link fluorescein conjugation reaction [1]: significant interference; % of control [1]: 53%
16 | CC(C)(C)C(=O)O [Pivalic Acid] | – | 53 | significant interference but not totally abolishing the conjugation reaction; also recorded: partial inhibition | acid groups ionised (COO−) [6]: ~50%
17 | O=C(O)c1cccnc1 [Nicotinic Acid] | pKa1 = 2.201 | 73 | significant interference; also recorded: partial interference | pKa of the carboxyl (acid) group [2]: 2.2
18 | CC(=O)O [acetic acid] | – | – | greater interference in carbodiimide reactions than glycine | –
19 | O=C(O)C(Cl)(Cl)Cl [TCA, trichloroacetic acid] | – | 0 | severe interference | acid groups ionised (COO−) [6]: essentially fully ionised
20 | Citric Acid | – | 0 | severe interference | release of thiols from 2-iminothiolane versus control ([4]; listed as Citric acid): no effect; release of thiols from 2-iminothiolane versus control ([4]; listed as citric acid): no increase in this rate
21 | [N-]=[N+]=[N-].[Na+] [0.01% NaN3, sodium azide] | pKa1 = 4.8 | 26 | caused interference | –
22 | C[C@H](N)C(=O)O [Alanine] | – | 100 | little or no effect | –
23 | O=S(=O)(O)CCCCN1CCN(CCO)CC1 [HEPBS, N-(2-Hydroxyethyl)piperazine-N′-(4-butanesulfonic acid)] | – | – | – | pKa of buffer [2]: 8.3
24 | O=S(=O)(O)CCN1CCN(CCS(=O)(=O)O)CC1 [PIPES, piperazine-N,N′-bis(2-ethanesulfonic acid)] | – | – | – | pKa of buffer [2]: 6.76
